# Measured values: patent US20240109881A1, “Heteroaryl Compounds as Ligand Directed Degraders of IRAK4” (Bristol-Myers Squibb Company, priority 2022, published 2024)
# Key:
# [1] = molecular target: T1, IRAK4 (Homo sapiens, UniProt Q9NWZ3); assay: ALE THP1 HTRF (Advanced Lipoxidation End Product THP1 Homogeneous Time Resolved Fluorescence); assay type: cell-based; conditions: THP1 cells
# T1 construct: endogenous in cells; host or cells: THP-1 cells
# T1 sequence (Q9NWZ3 1-460): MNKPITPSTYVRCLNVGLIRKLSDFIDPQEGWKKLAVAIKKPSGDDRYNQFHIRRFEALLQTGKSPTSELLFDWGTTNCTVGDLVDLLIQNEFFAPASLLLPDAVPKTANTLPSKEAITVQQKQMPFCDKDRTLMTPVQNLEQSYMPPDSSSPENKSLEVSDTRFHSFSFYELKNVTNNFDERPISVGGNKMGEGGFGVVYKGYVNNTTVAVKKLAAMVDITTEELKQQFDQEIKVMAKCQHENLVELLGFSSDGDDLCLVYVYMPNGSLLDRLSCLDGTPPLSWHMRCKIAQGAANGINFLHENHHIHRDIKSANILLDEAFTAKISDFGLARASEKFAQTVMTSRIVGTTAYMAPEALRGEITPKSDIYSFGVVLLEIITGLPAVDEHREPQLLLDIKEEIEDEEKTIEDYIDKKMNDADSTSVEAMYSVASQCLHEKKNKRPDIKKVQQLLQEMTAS
# Summary of the method: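 Cells lysed 45 min at room temperature; lysates normalized to total protein by BCA. Total IRAK4 detected by HTRF sandwich (anti-IRAK4-d2 plus anti-IRAK4-cryptate), incubated overnight in the dark at room temperature, read on a time-resolved fluorescence plate reader.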
# [2] = molecular target: T1, IRAK4; assay: LVL THP1 HTRF (THP1 Homogeneous Time Resolved Fluorescence); assay type: cell-based; conditions: THP1 cells, 18 h incubation with compound; for DC50: read-out: LVL THP1 HTRF EC50
# Summary of the method: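 THP-1 cells in phenol red-free RPMI with 10% FBS were dosed with compound (20 nL in DMSO) for 18 h at 37° C. After 2 h lysis, IRAK4 was detected with anti-IRAK4-d2/anti-IRAK4-K HTRF antibodies for 18 h at room temperature and read at 665/615 nm; a parallel CTG plate was run.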
Structure (SMILES),ALE THP1 HTRF YMIN [1] [%],EC50 [1] [nM],LVL THP1 HTRF YMIN [2] [%],DC50 [2] [nM]
C[C@H](C#N)Nc1cc(-n2ncc3cc(C#N)cnc32)ncc1-n1cc(C2CCC(CCN3CCN(c4ccc(C5CCC(=O)NC5=O)cc4)[C@@H](C)C3)CC2)nn1 (stereo in doubt) [P-156],10.1,1,2.0,8
C[C@H](C#N)Nc1cc(-n2ncc3cc(C#N)c(N)nc32)ncc1C(=O)N[C@H]1CC[C@H](CCN2CCN(c3ccc(C4CCC(=O)NC4=O)cc3)[C@H](C)C2)CC1 (some centres unmarked) [P-142],9.7,46,,
C[C@H](C#N)Nc1cc(-n2ncc3cc(C#N)cnc32)ncc1C(=O)N[C@H]1CC[C@H](CCN2CCC(c3ccc(C4CCC(=O)NC4=O)cc3)CC2)CC1 (some centres unmarked) [P-143],6.5,4,,
C[C@H](C#N)Nc1cc(-c2ccc3cc(C#N)cnn23)ncc1C(=O)N[C@H]1CC[C@H](CCN2CCN(c3ccc(C4CCC(=O)NC4=O)cc3)CC2)CC1 (some centres unmarked) [P-144],5.9,4,0.8,13
C[C@H](C#N)Nc1cc(-n2cc(F)c3cc(C#N)cnc32)ncc1C(=O)N[C@H]1CC[C@H](CCN2CCN(c3ccc(C4CCC(=O)NC4=O)cc3)CC2)CC1 (some centres unmarked) [P-145],11.0,35,,
C[C@H](C#N)Nc1cc(-n2ncc3cc(C#N)c(N)nc32)ncc1C(=O)N[C@H]1CC[C@H](CCN2CCC(c3ccc(C4CCC(=O)NC4=O)cc3)CC2)CC1 (some centres unmarked) [P-146],8.0,1,,
C[C@H](C#N)Nc1cc(-c2cnc3cc(C#N)cnn23)ncc1C(=O)N[C@H]1CC[C@H](CCN2CCN(c3ccc(C4CCC(=O)NC4=O)cc3)CC2)CC1 (some centres unmarked) [P-147],9.0,19,,
C[C@H](C#N)Nc1cc(-c2cnc3cc(C#N)cnn23)ncc1C(=O)N[C@H]1CC[C@H](CCN2CCC(c3ccc(C4CCC(=O)NC4=O)cc3)CC2)CC1 (some centres unmarked) [P-148],11.0,16,,
C[C@H](C#N)Nc1cc(-n2ncc3cc(C#N)cnc32)ncc1C(=O)N[C@H]1CC[C@H](CCN2[C@@H](C)CN(c3ccc(C4CCC(=O)NC4=O)cc3)C[C@@H]2C)CC1 (some centres unmarked) [P-149],7.1,4,,
C[C@H](C#N)Nc1cc(-n2ncc3cc(C#N)cnc32)ncc1C(=O)N[C@H]1CC[C@H](CCN2CCN(c3ccc(C4CCC(=O)NC4=O)cc3)[C@H](C)C2)CC1 (some centres unmarked) [P-150],6.2,7,<0.5,25
C[C@H](C#N)Nc1cc(-n2ncc3cc(C#N)cnc32)ncc1C(=O)N[C@H]1CC[C@H](CCN2C[C@@H](C)N(c3ccc(C4CCC(=O)NC4=O)cc3)C[C@@H]2C)CC1 (some centres unmarked) [P-151],6.0,8,,
C[C@H](C#N)Nc1cc(-n2ncc3cc(C#N)cnc32)ncc1C(=O)N[C@H]1CC[C@H](CCN2CCN(c3ccc(C4CCC(=O)NC4=O)cn3)[C@H](C)C2)CC1 (some centres unmarked) [P-152],15.8,20,,
COc1cc(N2C[C@H](C)N(CC[C@H]3CC[C@H](NC(=O)c4cnc(-n5ncc6cc(C#N)cnc65)cc4N[C@H](C)C#N)CC3)[C@@H](C)C2)ccc1C1CCC(=O)NC1=O (some centres unmarked) [P-153],4.5,17,,
N#Cc1cnc2c(cnn2-c2cc(NC3CC3)c(-n3cc([C@H]4CC[C@H](CCN5CCN(c6ccc(C7CCC(=O)NC7=O)cc6)CC5)CC4)nn3)cn2)c1 (some centres unmarked) [P-154],10.0,22,,
CC1(Nc2cc(-n3ncc4cc(C#N)c(N)nc43)ncc2-n2cc([C@H]3CC[C@H](CCN4CCN(c5ccc(C6CCC(=O)NC6=O)cc5)CC4)CC3)nn2)CC1 (some centres unmarked) [P-157],10.0,2,,
C[C@H](C#N)Nc1cc(-n2ncc3cc(C#N)cnc32)ncc1C(=O)N[C@H]1CC[C@H](CCN2C[C@H](C)N(c3ccc(C4CCC(=O)NC4=O)cc3)C[C@@H]2C)CC1 (some centres unmarked) [P-158],16.0,65,,
C[C@H](C#N)Nc1cc(-n2ncc3cnc(N)nc32)ncc1C(=O)N[C@H]1CC[C@H](CCN2CCN(c3ccc(C4CCC(=O)NC4=O)cc3)CC2)CC1 (some centres unmarked) [P-159],6.1,7,<0.5,18
COc1cc(N2CCN(CC[C@H]3CC[C@H](NC(=O)c4cnc(-n5ncc6cc(C#N)c(N)nc65)cc4N[C@H](C)C#N)CC3)C[C@H]2C)ccc1C1CCC(=O)NC1=O (some centres unmarked) [P-161],6.6,6,<0.5,12
N#Cc1cc2cnn(-c3cc(NC4CC4)c(-n4cc([C@H]5CC[C@H](CCN6CCN(c7ccc(C8CCC(=O)NC8=O)cc7)CC6)CC5)nn4)cn3)c2nc1N (some centres unmarked) [P-162],6.4,3,0.6,8
C[C@H](C#N)Nc1cc(-n2ccc3cnc(N)nc32)ncc1C(=O)N[C@H]1CC[C@H](CCN2CCN(c3ccc(C4CCC(=O)NC4=O)cc3)CC2)CC1 (some centres unmarked) [P-163],8.4,12,<0.5,26
C[C@H](C#N)Nc1cc(-n2ncc3cc(C#N)cnc32)ncc1C(=O)N[C@H]1CC[C@H](CCN2CC3CCC(C2)N3c2ccc(C3CCC(=O)NC3=O)cc2)CC1 (some centres unmarked) [P-164],64.0,136,16.8,> 5000
C[C@H](C#N)Nc1cc(-n2ncc3cc(C#N)c(N)nc32)ncc1C(=O)N[C@H]1CC[C@H](CCN2CCN(c3ccc(C4CCC(=O)NC4=O)cc3F)[C@H](C)C2)CC1 (some centres unmarked) [P-165],5.4,2,<0.5,6
C[C@H](C#N)Nc1cc(-n2ncc3cc(C#N)c(N)nc32)ncc1C(=O)N[C@H]1CC[C@H](CCN2CCN(c3ccc(C4CCC(=O)NC4=O)cn3)[C@H](C)C2)CC1 (some centres unmarked) [P-166],8.1,8,<0.5,21
COc1cc(C2CCC(=O)NC2=O)ccc1N1CCN(CC[C@H]2CC[C@H](NC(=O)c3cnc(-n4ncc5cc(C#N)c(N)nc54)cc3N[C@H](C)C#N)CC2)C[C@H]1C (some centres unmarked) [P-167],5.9,2,<0.5,5
C[C@H](C#N)Nc1cc(-n2ncc3cc(C#N)c(N)nc32)ncc1C(=O)N[C@H]1CC[C@H](CCN2CCN(c3ccc(C4CCC(=O)NC4=O)cc3Cl)[C@H](C)C2)CC1 (some centres unmarked) [P-168],5.5,6,<0.5,3
CS(=O)(=O)N1CCC(Nc2cc(-n3ncc4cc(C#N)cnc43)ncc2-n2cc([C@H]3CC[C@H](CCN4CCN(c5ccc(C6CCC(=O)NC6=O)cc5)CC4)CC3)nn2)CC1 (some centres unmarked) [P-174],31.2,201,2.7,14
C[C@H](C#N)Nc1cc(-n2ncc3cc(C#N)c(N)nc32)ncc1C(=O)N[C@H]1CC[C@H](CCN2CCN(c3ccc(C4CCC(=O)NC4=O)cc3)C(=O)C2)CC1 (some centres unmarked) [P-177],6.7,4,6.4,32
C[C@H](C#N)Nc1cc(-n2ncc3cc(C#N)c(N)nc32)ncc1C(=O)N[C@H]1CC[C@H](CCN2CCN(c3ccc(C4CCC(=O)NC4=O)cc3)[C@@H](C)C2)CC1 (some centres unmarked) [P-178],7.5,12,0.8,1
